Experimental findings from US20070128217A1 (priority 2003, published 2007) are described below.

The test system of test [1] is antibodies in sera from SARS patients (sera 1a, 1b, 2, 6, 37, 62, London, SARS-yellow, SARS-green). Format: binding, human. On the set-up: Binding of serum 6 to linear peptides of protein X1 of SARS-CoV Urbani / Binding of serum 37 to linear peptides of protein X1 of SARS-CoV Urbani / Binding of serum 6 to looped/cyclic peptide (PEPSCAN-ELISA) / Binding of serum 37 to looped/cyclic peptide (PEPSCAN-ELISA) / Binding of serum 37 to looped/cyclic peptides of protein X1 of SARS-CoV Urbani / Binding of serum 6 to linear peptides of protein X2 / Binding of serum 37 to linear peptides of protein X2 / Binding of serum 37 to looped/cyclic peptides of protein X2 of SARS-CoV Urbani / Binding of serum 6 to linear peptides of protein M of SARS-CoV Urbani / Binding of serum 37 to linear peptides of protein M of SARS-CoV Urbani / Binding of serum 6 to looped/cyclic peptides of protein M of SARS-CoV Urbani / Binding of serum 37 to looped/cyclic peptides of protein M of SARS-CoV Urbani / Binding of serum 6 to linear peptides of protein X3 of SARS-CoV Urbani / Binding of serum 37 to linear peptides of protein X3 of SARS-CoV Urbani / Binding of serum 37 to looped/cyclic peptides of protein X3 of SARS-CoV Urbani / Binding of serum 6 to linear peptides of protein X4 of SARS-CoV Urbani / Binding of serum 37 to linear peptides of protein X4 of SARS-CoV Urbani / Binding of serum 37 to looped/cyclic peptides of protein X4 of SARS-CoV Urbani / Binding of serum 6 to linear peptides of protein X5 of SARS-CoV Urbani / Binding of serum 37 to linear peptides of protein X5 of SARS-CoV Urbani / Binding of serum 37 to looped/cyclic peptides of protein X5 of SARS-CoV Urbani / Binding of serum 6 to linear peptides of protein N of SARS-CoV Urbani / Binding of serum 37 to linear peptides of protein N of SARS-CoV Urbani / Binding of serum 6 to linear peptide (PEPSCAN-ELISA) / Binding of serum 1a to looped/cyclic peptides of protein N of SARS-CoV Urbani / Binding of serum 1b to looped/cyclic peptides of protein N of SARS-CoV Urbani / Binding of serum 2 to looped/cyclic peptides of protein N of SARS-CoV Urbani / Binding of serum 6 to looped/cyclic peptides of protein N of SARS-CoV Urbani / Binding of serum 37 to looped/cyclic peptides of protein N of SARS-CoV Urbani / Binding of serum 62 to looped/cyclic peptides of protein N of SARS-CoV Urbani / Binding of serum London to looped/cyclic peptides of protein N of SARS-CoV Urbani / Binding of serum SARS-green to looped/cyclic peptides of protein N of SARS-CoV Urbani: unit not given here.

The test system of test [2] is control sera (pooled serum of ten healthy LUMC hospital workers; commercial negative donor pooled serum from the Dutch bloodbank). It is filed as binding, human. Details: Binding of Control serum LUMC to linear peptides / Binding of Control serum Blood-bank to linear peptides / Binding of Control serum LUMC to looped peptides / Binding of Control Serum Blood-Bank to Looped peptides / Binding of Control serum LUMC to linear peptides of the protein M of SARS-CoV Urbani / Binding of Control serum Blood-bank to linear peptides of the protein M of SARS-CoV Urbani / Binding of Control serum LUMC to looped peptides of the protein M of SARS-CoV Urbani / Binding of Control Serum Blood-Bank to Looped peptides of the protein M of SARS-CoV Urbani: unit not given here.

The test system of test [3] is rabbit serum obtained by immunizing a rabbit with the SARS-CoV strain Frankfurt 1. Format: binding. Details: Binding of a rabbit serum to linear peptides / Binding of a rabbit serum to looped peptides / Rabbit serum linear peptides / Rabbit serum looped peptides / Binding of a rabbit serum to linear peptides of protein N of SARS-CoV Urbani (Rabbit serum linear peptides) / Binding of a rabbit serum to looped/cyclic peptides of protein N of SARS-CoV Urbani (Rabbit serum looped peptides): unit not given here.

As to NTYSTAWLCALGKVL, in test [1], the “Binding of serum 1a to linear peptides of protein X5 of SARS-CoV Urbani” value came out at 0.7, the “Binding of serum 1a to looped/cyclic peptides of protein X5 of SARS-CoV Urbani” value came out at 0.4, the “Binding of serum 1b to linear peptides of protein X5 of SARS-CoV Urbani” value was 0.4 and the “Binding of serum 1b to looped/cyclic peptides of protein X5 of SARS-CoV Urbani” value was 0.3. In addition, in test [1], the “Binding of serum 2 to linear peptides of protein X5 of SARS-CoV Urbani” value is on record as 0.5, the “Binding of serum 2 to looped/cyclic peptides of protein X5 of SARS-CoV Urbani” value turned out to be 0.5, the “Binding of serum 6 to linear peptides of protein X5 of SARS-CoV Urbani” value was found to be 0.6 and the “Binding of serum 6 to looped/cyclic peptides of protein X5 of SARS-CoV Urbani” value stood at 1.1. In test [1], the “Binding of serum 37 to linear peptides of protein X5 of SARS-CoV Urbani” value was found to be 0.6, the “Binding of serum 37 to looped/cyclic peptides of protein X5 of SARS-CoV Urbani” value worked out at 0.5, the “Binding of serum 62 to linear peptides of protein X5 of SARS-CoV Urbani” value is recorded as 0.7 and the “Binding of serum 62 to looped/cyclic peptides of protein X5 of SARS-CoV Urbani” value was found to be 0.6. For the same sequence, in test [1], the “Binding of serum London to linear peptides of protein X5 of SARS-CoV Urbani” value is recorded as 0.6, the “Binding of serum London to looped/cyclic peptides of protein X5 of SARS-CoV Urbani” value is 2.3, the “Binding of serum SARS-green to linear peptides of protein X5 of SARS-CoV Urbani” value came to 0.4 and the “Binding of serum SARS-green to looped/cyclic peptides of protein X5 of SARS-CoV Urbani” value was determined as 0.3. Also, in test [1], the “Binding of serum SARS-yellow to linear peptides of protein X5 of SARS-CoV Urbani” value is 0.3 and the “Binding of serum SARS-yellow to looped/cyclic peptides of protein X5 of SARS-CoV Urbani” value is reported as 0.6. Moreover, in test [2], the “Binding of Control Serum Blood-Bank to Looped peptides” value stood at 0.4, the “Binding of Control serum Blood-bank to linear peptides” value is reported as 0.8, the “Binding of Control serum LUMC to linear peptides” value is recorded as 0.4 and the “Binding of Control serum LUMC to looped peptides” value turned out to be 0.5. Moreover, in test [3], the “Rabbit serum linear peptides” value came out at 0.6 and the “Rabbit serum looped peptides” value is reported as 0.5.

Regarding NVPLRGTIVTRPLME, in test [1], the “Binding of serum 1a to linear peptides of protein M of SARS-CoV Urbani” value came to 0.8, the “Binding of serum 1b to linear peptides of protein M of SARS-CoV Urbani” value is on record as 0.6, the “Binding of serum 2 to linear peptides of protein M of SARS-CoV Urbani” value worked out at 0.4 and the “Binding of serum 6 to linear peptides of protein M of SARS-CoV Urbani” value was determined as 0.3. In test [1], the “Binding of serum 37 to linear peptides of protein M of SARS-CoV Urbani” value is 0.7, the “Binding of serum 62 to linear peptides of protein M of SARS-CoV Urbani” value is 0.8, the “Binding of serum London to linear peptides of protein M of SARS-CoV Urbani” value amounted to 0.3 and the “Binding of serum SARS-green to linear peptides of protein M of SARS-CoV Urbani” value amounted to 0.4. In addition, in test [1], the “Binding of serum SARS-yellow to linear peptides of protein M of SARS-CoV Urbani” value amounted to 0.1; the “Recognition of the peptide by sera of SARS-CoV infected individuals, and form (linear, looped/cyclic) in which it is recognized” value is “recognized in looped/cyclic form”. In test [2], the “Binding of Control Serum Blood-Bank to Looped peptides of the protein M of SARS-CoV Urbani” value was 0.7, the “Binding of Control serum Blood-bank to linear peptides of the protein M of SARS-CoV Urbani” value is 0.6, the “Binding of Control serum LUMC to linear peptides of the protein M of SARS-CoV Urbani” value came to 0.4 and the “Binding of Control serum LUMC to looped peptides of the protein M of SARS-CoV Urbani” value was determined as 0.9. Further, in test [3], the “Rabbit serum linear peptides” value is on record as 0.3 and the “Rabbit serum looped peptides” value is 0.5.
